{"source": "patent US8575111B2", "about": "“Pharmaceutical compositions and methods for treating erectile dysfunction” (Universidade Federal de Minas Garais-UFMG, priority 2007, dated 2013)", "key": {"AT1": {"target": "T1, AT1 (Homo sapiens, UniProt P30556)", "T1 sequence (P30556 1-359)": "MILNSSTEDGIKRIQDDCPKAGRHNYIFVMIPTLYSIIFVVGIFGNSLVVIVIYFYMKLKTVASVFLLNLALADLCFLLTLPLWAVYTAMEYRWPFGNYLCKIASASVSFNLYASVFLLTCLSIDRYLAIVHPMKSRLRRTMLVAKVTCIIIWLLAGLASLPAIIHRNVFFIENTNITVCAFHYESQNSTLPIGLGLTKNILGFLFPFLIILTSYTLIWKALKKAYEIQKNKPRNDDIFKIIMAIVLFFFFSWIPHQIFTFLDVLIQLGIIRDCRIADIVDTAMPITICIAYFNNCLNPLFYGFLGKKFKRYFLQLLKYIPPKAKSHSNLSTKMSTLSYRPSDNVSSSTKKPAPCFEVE", "conditions": "receptor AT1; cited from earlier work"}, "[1]": {"tested_on": "rat ganglionic-stimulated erectile response", "test": "Ganglionic-stimulated changes in CCP/MAP after intracavernosal drug administration in anesthetized rats", "type": "in vivo", "protocol": "Normotensive and DOCA-salt hypertensive rats, Mas−/− and WT mice were anesthetized with intraperitoneal urethane (140 mg/Kg). The rat left femoral artery and mice […] was cannulated for continuous monitoring of mean arterial pressure (MAP). The shaft of the penis was freed of skin and fascia, and the right corpus cavernosum was cannulated by insertion of a 30-gauge needle connected to a pressure transducer, permitting continuous monitoring of corpus cavernosum pressure (CCP) as described elsewhere (see, e.g., T. M. Mills, et al., Biol Reprod 59, 1413 (December, 1998)). The rat left corpus cavernosum was cannulated with 30-gauge needles attached to 10-μL syringes via short lengths of polyethylene (PE)-10 tubing and used for administration of vasoactive drugs. The abdominal cavity was opened, exposing the right major pelvic ganglion (MPG), and silver bipolar electrodes were positioned on it. […]\nIn order to evaluate the role of the Ang-(1-7) released endogenously, it was first determined the minimal stimuli in which the maximal value of the CCP/MAP was achieved. […]\nTo evaluate the effect of Ang-(1-7) on ganglionic-stimulated CCP/MAP rise in the presence of NOS inhibition, a sub-maximal stimulus was determined and applied to the MPG. […] Thereafter, Ang-(1-7) was administered and sub-maximal stimulus was applied while CCP/MAP was continuously recorded."}, "erectile function of SHR": {"tested_on": "erectile function of SHR", "test": "Erectile function (CCP/MAP) of SHR chronically treated orally", "type": "in vivo, rat", "conditions": "chronic oral treatment, drug alone, 1.5 V", "protocol": "Eight weeks post-treatment with Ang-(1-7)/HPβ-CD Inclusion Complex and/or Atenolol, the erectile function of the animals (SHR, spontaneously hypertensive rats) was evaluated. Particularly, erectile function of animals chronically treated with Atenolol was evaluated after concurrent administration with Ang-(1-7)/HPβ-CD Inclusion Complex. The drugs were orally administered via solutions containing them, alone or in combination. As a control, a group of animals was treated with HPβ-CD.\nThe procedure for inducing erection and intracavernosal pressure measurement was made as previously described (see, T. M. Mills, R. W. Lewis, V. S. Stopper, Biol Reprod 59, 1413 (December, 1998). Firstly, the animals (SHR) were anesthetized with intraperitoneal urethane (140 mg/kg) and placed on a thermal plate to maintain body temperature at 37° C. A polyethylene cannule was introduced into the animal trachea to keep respiratory patency. Following, the rat left femoral artery was cannulated with a polyethylene tube (PE-50) with heparinized saline (200 U/ml) for continuous monitoring of mean arterial pressure (MAP). The catheter was connected to a pressure transducer. The penial erection was obtained by applying electric stimulation on the major pelvic ganglion (MPG). […]"}, "[2]": {"test": "Absorption and biological stability after gavage in Wistar rats", "type": "in vivo, rat", "conditions": "Ang-(1-7) peptide alone, gavage 100 μg/50 μl", "protocol": "Assays for determining absorption and biological stability of the Ang-(1-7)/HPβ-CD inclusion complex were made in aqueous solution. Twelve normal Wistar rats properly prepared were used to carry out the experiments. The animals were divided in 3 experimental groups and subjected to a gavage procedure with a salt solution (0.9%/50 μl) of Ang-(1-7) (100 μg/50 μl) and Ang-(1-7)/HPβ-CD (100 μg/50 μl). Four blood samples (1 ml, each) from the animals were collected. The first collection occurred before gavage procedure, and the remaining three 2, 6 and 24 hours post gavage."}, "erectile dysfunction": {"tested_on": "erectile dysfunction", "conditions": "men with erectile dysfunction; cited from earlier work"}}}
{"molecule": "Des-Asp1-Ang I: angiotensin listed in Table 1, acting on AT1 (RVYIHPFHL; Angiotensin-1; UniProt P01019 26-34, looked up, fragment)", "values": [{"measurement": "Actions", "setting": "AT1", "result": "Inhibition of Ang II-induced cell"}]}
{"molecule": "COC(=O)[C@@H](N)CCCNC(=N)N[N+](=O)[O-]", "note": "[L-NAME, Nw-nitro-L-arginine methyl ester]", "values": [{"measurement": "CCP/MAP induced by submaximal stimulus", "setting": "[1]; L-NAME 200 μg/Kg intracavernosal, mean±s.e.m., n=6, control 0.57±0.06, P<0.05", "result": "0.38±0.05"}, {"measurement": "effect on baseline CCP or MAP", "setting": "[1]; administration into left cavernosal sinuses", "result": "did not alter"}]}
{"molecule": "CC(C)NCC(O)COc1ccc(CC(N)=O)cc1", "note": "(stereo not drawn) [Atenolol, atenolol]", "values": [{"measurement": "effect on intracavernosal pressure rise induced by stimulation of the major pelvic ganglion", "setting": "erectile function of SHR", "result": "reduced"}]}
{"molecule": "CC[C@H](C)[C@H](NC(=O)[C@H](Cc1ccc(O)cc1)NC(=O)[C@@H](NC(=O)[C@H](CCCNC(=N)N)NC(=O)[C@@H](N)CC(=O)O)C(C)C)C(=O)N[C@@H](Cc1c[nH]cn1)C(=O)N1CCC[C@H]1C(=O)O", "note": "[Ang-(1-7), Asp-Arg-Val-Tyr-Ile-His-Pro]", "values": [{"measurement": "increase of plasmatic peptide concentration relative to Ang-(1-7)/HPβ-CD", "setting": "[2]", "result": "about 8 fold lower"}]}
{"molecule": "CCCCC[C@H](O)/C=C/[C@H]1[C@H](O)CC(=O)[C@@H]1CCCCCCC(=O)O", "note": "[ALPROSTADIL®]", "values": [{"measurement": "patients in whom the treatment is effective", "setting": "erectile dysfunction", "result": "over 80%"}]}
